Experiments:
U2OS cells = assay: Long-lived protein degradation assay; type: cell-based, human; conditions: 20 μM
Procedure: The long-lived protein degradation assays were performed as described (Humbey et al., 2008; Pimkina et al., 2008), but with the following modifications. The cells were seeded at 30% confluency. The cells were then labeled at 37° C. for 14 h in L-valine-free medium supplemented with dialyzed FBS medium containing 0.2 mCi/ml of L-[^14C]valine (Amersham Pharmacia). After the radiolabeling period, unincorporated radioisotope was removed by three rinses with PBS (pH 7.4). Cells were then incubated at 37° C. in fresh complete media [Dulbecco's modified Eagle's medium (DMEM), 10% fetal bovine serum (FBS), 1% penicillin-streptomycin (PS)] containing 2 mM unlabeled valine for 10 h to allow the degradation of labeled short-lived proteins. Cells were then rinsed 3 times with PBS (pH 7.4), and grown in fresh complete media [DMEM, 10% FBS, 1% PS] containing either DMSO or 20 μM PES. Aliquots of the media (0.2 ml in duplicate) were taken at 0 h, 4 h, 8 h, 24 h, and 48 h and mixed with 0.2 ml of 1% bovine serum albumin and 0.4 ml of 40% trichloroacetic acid (v/v). […] Radioactivity in the aliquots was measured on a Beckman liquid scintillation system. The percentage of long-lived protein degraded was obtained by the formula % degradation=(^14C counts at timepoint/sum of ^14C counts at each time point+total cell-associated radioactivity)×100.

[1] = tested on: MCF7 human breast carcinoma cells; assay: MTT assay, PES followed by 17-AAG; type: cell-based; conditions: 5 μM PES 1 h, then 17-AAG 47 h
Procedure: FIG. 17. PES impairs the proteasome system. (A) Cell-based 20S proteasome activity assay of H1299 or A875 human tumor cells treated with DMSO, 20 μM PES, 100 nM Velcade (proteasome inhibitor), 1 μM 17-AAG (HSP90 inhibitor), 5 μM CQ (lysosome inhibitor), or 20S proteasome inhibitor epigallocatechin gallate (EGCG). Each graphical representation indicates the mean±SD of at least three independent cultures relative to control (DMSO-treated) cells. (B) Cell extracts from SKBR3 human breast carcinoma cells, treated either with 20 μM PES or 1 μM 17-AAG for 24 h, were immunoprecipitated (IP) using anti-HSP70 or anti-HSP90 antibody. […] MTT assays of MCF7 human breast carcinoma cells pretreated with DMSO, or 5 μM PES for 1 h, followed by the addition of indicated amount of 17-AAG for 47 h. The results represent the mean±SD of at least three independent analysis of cultures relative to control (DMSO-treated) cells. […]
Cell viability assays were performed using an MTT (methyl thiazolyl tetrazolium) colorimetric assay (Roche Applied Science, Cat. No. 11 465 007 001), with the following modifications. […] The metabolized insoluble formazan crystals were then solubilized using 0.5 ml of the Solubilization solution (10% SDS in 0.01M HCl) per well, and the resulting colored solutions were spectrophotometrically quantified at an absorbance of 570 nm.

HSP70 = HSP70 (Homo sapiens, UniProt P0DMV8); assay: Capture of HA-tagged HSP70 constructs from transfected H1299 cells with biotinylated compound; type: binding; set-up: expressed in transfected cells; host or cells: H1299; conditions: biotinylated compound, 6 hours
Sequence of HSP70 (P0DMV8 2-641): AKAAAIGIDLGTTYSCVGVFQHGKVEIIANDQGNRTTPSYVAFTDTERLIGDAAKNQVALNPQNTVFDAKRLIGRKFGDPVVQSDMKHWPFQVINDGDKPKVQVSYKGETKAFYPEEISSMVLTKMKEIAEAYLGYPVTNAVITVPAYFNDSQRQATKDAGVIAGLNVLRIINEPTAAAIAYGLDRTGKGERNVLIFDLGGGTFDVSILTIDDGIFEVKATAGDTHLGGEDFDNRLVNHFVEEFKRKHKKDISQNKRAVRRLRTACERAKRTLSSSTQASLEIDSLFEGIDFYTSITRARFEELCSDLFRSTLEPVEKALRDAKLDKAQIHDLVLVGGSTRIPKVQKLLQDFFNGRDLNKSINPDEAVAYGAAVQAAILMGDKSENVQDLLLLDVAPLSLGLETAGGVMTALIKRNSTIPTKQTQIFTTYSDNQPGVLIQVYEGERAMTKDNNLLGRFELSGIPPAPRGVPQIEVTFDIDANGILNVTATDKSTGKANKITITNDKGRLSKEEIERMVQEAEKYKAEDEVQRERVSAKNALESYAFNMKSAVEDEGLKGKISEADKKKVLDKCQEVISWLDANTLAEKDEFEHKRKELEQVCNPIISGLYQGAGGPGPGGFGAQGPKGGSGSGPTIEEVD
Procedure: FIG. 1. PES Binds to HSP70. (A) Whole cell extracts (WCE) prepared from A875 and BCL-xL over-expressing U2OS human osteosarcoma cells (BX-U2OS) cells, treated with Biotin or Biotin-PES (B-PES), were captured using NeutrAvidin agarose resins. HSP70-family proteins were identified as the major product in the excised band of ˜70 kDa shown in both Coomassie gels. (B and C) WCE were prepared from the cell lines indicated following 24 h treatment with 20 μM Biotin or B-PES and examined for the expression of proteins indicated (left panel of B and C) by western blot analysis; note that different exposure times were used to visualize these proteins. […] (D) In vitro evidence for an interaction between B-PES and HSP70. Full-length human HSP70 and human HSP90 proteins were in vitro translated in the presence of ^35S-methionine, mixed with B-PES coupled to NeutrAvidin resins, and eluted using 100 mM DTT. The resulting DTT eluates were separated by polyacrylamide gel electrophoresis (SDS-PAGE) and visualized by autoradiography. (E) B-PES interacts with the C-terminal region of HSP70. H1299 cells were transfected with the indicated hemagglutinin (HA)-tagged constructs and exposed to B-PES. B-PES containing complexes were captured by NeutrAvidin Resins, eluted following 100 mM DTT treatment, and immunoblotted with anti-HA antibody following SDS-PAGE. (F) Non-transformed human IMR90 fibroblasts or H1299 lung carcinoma cells were treated with the indicated concentrations of PES for 24 h and cell viability was determined by MTT assays. (G) WCE were prepared from the cell lines indicated following 5 hr treatment with 20 μM PES or B-PES and examined for the expression of proteins indicated (left panel) by western blot analysis; note that different exposure times were used to visualize these proteins. B-PES-containing complexes were captured by NeutrAvidin resins, eluted following 50 mM DTT treatment, and immunoblotted using the indicated antibodies.
The free amide group of PES-Cl was biotinylated and added to HA-tagged HSP70-transfected H1299 cells. The treatment of the cells occurred for 6 hours. The complexes were pulled down with NeutrAvidin beads, eluted with 100 mM DTT treatments, separated with SDS-PAGE and detected with anti-HA antibody (Millipore) by Western blot.
Docking studies were performed using the C-terminal HSP70 crystal structure (FIG. 32) to elucidate the PES binding site in silico (FIG. 33). Blind docking methods were used in the program AutoDock to locate potential PES binding sites. These methods use a course grid docking approach, encompassing the entire protein, to identify favorable binding sites using a known binding ligand, and are examined by hand to support the AutoDock data. […]

[2] = tested on: normal human lung fibroblasts (IMR90); assay: MTT cell viability assay; type: cell-based; conditions: 24 h, except at the highest concentrations used
Procedure: Cell viability assays were performed using an MTT (methyl thiazolyl tetrazolium) colorimetric assay (Roche Applied Science, Cat. No. 11 465 007 001), with the following modifications. Briefly, cells (1×10^4) were plated into 24 well-assay plates in 0.5 ml media and allowed to attach overnight. […] After the incubation period, 50 μl of the water-soluble MTT labeling reagent [3-[4,5-dimethylthiazol-2-yl]-2,5-diphenyl tetrazolium bromid] were added to the cells, and the cells were incubated for 4 h in a humidified chamber at 37° C. with 5% CO2. The metabolized insoluble formazan crystals were then solubilized using 0.5 ml of the Solubilization solution (10% SDS in 0.01M HCl) per well, and the resulting colored solutions were spectrophotometrically quantified at an absorbance of 570 nm.

Compound: NS(=O)(=O)C#Cc1ccccc1 [PES, 2-Phenylethynesulfonamide]
- basal degradation of long-lived proteins (U2OS cells): significantly reduced
- cell killing by 17-AAG [1]: sensitizes cells to cell killing by 17-AAG
- interaction with HA-tagged HSP70 (HSP70): interact with HSP70
- cell viability [2]: minimal effect

Reference: patent US9296687B2, “Modulators of HSP70/DnaK function and methods of use thereof” (The Trustees of the University of Pennsylvania, priority 2008, dated 2016)
